# Results published in patent US9346812B2, “Substituted pyrrolopyrimidine compounds, compositions thereof, and methods of treatment therewith” (Signal Pharmaceutical LLC, priority 2013, dated 2016).
# System: CAL51 cell proliferation
# Test: Cell Titer Glo Proliferation Assay (CAL51)
# Format: cell-based, human
# Conditions: Homo sapiens, CAL-51; CAL51 cell proliferation, 72 h, Cell Titer Glo luminescence; read-out: Act. Level
# Procedure: Cell Titer Glo Proliferation Assay. Triple negative breast cancer cell line CAL51 was purchased from DSMZ. […] Allcell lines were maintained in growth media consisting of 90% high glucose Dulbecco's Modified Eagle Medium or RPMI1640 (Invitrogen), 10% fetal bovine serum (Hyclone), and 2 mM L-glutamine (Invitrogen). […] After overnight culture, compound stock (30 mM) was diluted serially in DMSO, further diluted in growth media, and was added to each well as a 10× concentrated solution in a volume of 11 μL, mixed, and allowed to incubate with cells. The compound vehicle (DMSO) was maintained at a final concentration of 0.2% in all wells. After 72 h, 100 μL of Cell Titer Glo solution (Promega) was added to each well of the 96-well plate. The plate was placed on a shaker for 2 minutes. After 10 minutes incubation, the luminescence signal was detected with Envision microplate reader (Perkin Elmer).
row,Compound,IC50
1,"C[C@@H](O)c1cccc(-c2c[nH]c3nc(Nc4ccc(C(=O)N(C)C)cc4Cl)nc(NC4CCOCC4)c23)c1 [Example 84, (R)-3-chloro-4-(5-(3-(1-hydroxyethyl)phenyl)-4-(tetrahydro-2H-pyrazin-4-ylamino)-7H-pyrrolo [2,3-d]pyrimidin-2-ylamino)-N,N-dimethylbenzamide]",100 to 400 nM
2,"C[C@H](O)c1cccc(-c2c[nH]c3nc(Nc4ccc(C(=O)N(C)C)cc4Cl)nc(NC4CCOCC4)c23)c1 [Example 85, (S)-3-chloro-4-(5-(3-(1-hydroxy-ethyl)phenyl)-4-(tetrahydro-2H-pyran-4-ylamino)-7H-pyrrolo[2,3-d]pyrimidin-2-ylamino)-N,N-dimethylbenzamide]",< 100 nM
3,"Cc1nc2ccc(-c3c[nH]c4nc(Nc5ccc(C(=O)N6CCOCC6)cc5C)nc(OC5CCCC5)c34)cc2o1 [Example 86, (4-(4-(cyclopentyloxy)-5-(2-methylbenzo[d]oxazol-6-yl)-7H-pyrrolo[2,3-d]pyrimidin-2-ylamino)-3-methylphenyl) (morpholino)methanone]",100 to 400 nM
4,"COc1nc(Nc2ccc3[nH]ncc3c2)nc2[nH]cc(-c3ccc4nc(C)oc4c3)c12 [Example 87, N-(1H-indazol-5-yl)-4-methoxy-5-(2-methylbenzo[d]oxazol-6-yl)-7H-pyrrolo[2,3-d]pyrimidin-2-amine]",100 to 400 nM
5,"COc1nc(Nc2ccc(-c3cn[nH]c3)cc2)nc2[nH]cc(-c3ccc4nc(C)oc4c3)c12 [Example 88, N-(4-(1H-pyrazol-4-yl)phenyl)-4-methoxy-5-(2-methylbenzo[d]oxazol-6-yl)-7H-pyrrolo[2,3-d] pyrimidin-2-amine]",100 to 400 nM
6,"COc1nc(Nc2ccc(C(=O)N(C)C)cc2C)nc2[nH]cc(-c3ccncc3)c12 [Example 89, 4-(4-methoxy-5-(pyridin-4-yl)-7H-pyrrolo[2,3-d]pyrimidin-2-ylamino)-N,N,3-trimethylbenzamide]",100 to 400 nM
7,"CNC(=O)c1ccc(Nc2nc(OC3CCOCC3)c3c(-c4ccc5nc(C)oc5c4)c[nH]c3n2)c(OC)c1 [Example 90, 3-methoxy-N-methyl-4-(5-(2-methylbenzo[d]oxazol-6-yl)-4-(tetrahydro-2H-pyran-4-yloxy)-7H-pyrrolo[2,3-d]pyrimidin-2-ylamino)benzamide]",< 100 nM
8,"COc1cc(C(=O)N(C)C)ccc1Nc1nc(OC2CCCC2)c2c(-c3ccc4nc(C)oc4c3)c[nH]c2n1 [Example 91, 4-(4-(cyclopentyloxy)-5-(2-methylbenzo[d]oxazol-6-yl)-7H-pyrrolo[2,3-d]pyrimidin-2-ylamino)-3-methoxy-N,N-dimethylbenzamide]",100 to 400 nM
9,"Cc1nc2ccc(-c3c[nH]c4nc(Nc5ccc(C(=O)N(C)C)cc5C)nc(O[C@H]5CC[C@H](O)CC5)c34)cc2o1 [Example 92, 4-(4-((1r,4r)-4-hydroxycyclo-hexyloxy)-5-(2-methylbenzo[d]oxazol-6-yl)-7H-pyrrolo[2,3-d]pyrimidin-2-ylamino)-N,N,3-trimethylbenzamide]",< 100 nM
10,"Cc1cc(C(=O)N(C)C)ccc1Nc1nc(OC2CCOCC2)c2c(-c3ccncc3)c[nH]c2n1 [Example 93, N,N,3-trimethyl-4-(5-(pyridin-4-yl)-4-(tetrahydro-2H-pyran-4-yloxy)-7H-pyrrolo[2,3-d]pyrimidin-2-ylamino)benzamide]",< 100 nM
11,"CNC(=O)c1ccc(Nc2nc(OC3CCCC3)c3c(-c4ccc5nc(C)oc5c4)c[nH]c3n2)c(C)c1 [Example 94, 4-(4-(cyclopentyloxy)-5-(2-methylbenzo[d]oxazol-6-yl)-7H-pyrrolo[2,3-d]pyrimidin-2-ylamino)-N,3-dimethylbenzamide]",400 to 1000 nM
12,"Cc1nc2ccc(-c3c[nH]c4nc(Nc5ccc(C(=O)N(C)C)cc5C)nc(OC5CCN(C)CC5)c34)cc2o1 [Example 95, N,N,3-trimethyl-4-(5-(2-methylbenzo[d]oxazol-6-yl)-4-(1-methylpiperidin-4-yloxy)-7H-pyrrolo[2,3-d]pyrimidin-2-ylamino)benzamide]",400 to 1000 nM
13,"COc1cc(C(=O)N2CCOCC2)ccc1Nc1nc(OC2CCCC2)c2c(-c3ccc4nc(C)oc4c3)c[nH]c2n1 [Example 96, (4-(4-(cyclopentyloxy)-5-(2-methylbenzo[d]oxazol-6-yl)-7H-pyrrolo[2,3-d]pyrimidin-2-ylamino)-3-methoxyphenyl)(morpholino) methanone]",400 to 1000 nM
14,"Cc1nc2ccc(-c3c[nH]c4nc(Nc5ccc(C(=O)N(C)C)cc5C)nc(OC5CCNCC5)c34)cc2o1 [Example 97, N,N,3-trimethyl-4-(5-(2-methylbenzo[d]oxazol-6-yl)-4-(piperidin-4-yloxy)-7H-pyrrolo [2,3-d]pyrimidin-2-ylamino) benzamide]",1000 to 10000 nM
15,"Cc1nc2ccc(-c3c[nH]c4nc(Nc5ccc(C(=O)N(C)C)cc5C)nc(O[C@H]5CCOC5)c34)cc2o1 [Example 98, (S)-N,N,3-trimethyl-4-(5-(2-methylbenzo[d]oxazol-6-yl)-4-(tetrahydrofuran-3-yloxy)-7H-pyrrolo[2,3-d]pyrimidin-2-ylamino)benzamide]",< 100 nM
16,"Cc1nc2ccc(-c3c[nH]c4nc(Nc5ccc(C(=O)N(C)C)cc5C)nc(O[C@@H]5CCOC5)c34)cc2o1 [Example 99, (R)-N,N,3-trimethyl-4-(5-(2-methylbenzo[d]oxazol-6-yl)-4-(tetrahydrofuran-3-yloxy)-7H-pyrrolo[2,3-d]pyrimidin-2-ylamino)benzamide]",< 100 nM
17,"COc1cc(C(=O)NCCN)ccc1Nc1nc(OC2CCCC2)c2c(-c3ccc4nc(C)oc4c3)c[nH]c2n1 [Example 100, N-(2-aminoethyl)-4-(4-(cyclopentyl-oxy)-5-(2-methylbenzo[d]oxazol-6-yl)-7H-pyrrolo[2,3-d]pyrimidin-2-ylamino)-3-methoxybenzamide]",< 100 nM
18,"CCOc1ccc(-c2c[nH]c3nc(Nc4ccc(C(=O)NC)cc4OC)nc(OC4CCOCC4)c23)cn1 [Example 102, 4-(5-(6-ethoxypyridin-3-yl)-4-(tetrahydro-2H-pyran-4-yloxy)-7H-pyrrolo[2,3-d]pyrimidin-2-ylamino)-3-methoxy-N-methylbenzamide]",100 to 400 nM
19,"COc1ccccc1Nc1nc(OC2CCCC2)c2c(-c3ccc4nc(C)oc4c3)c[nH]c2n1 [Example 103, 4-(cyclopentyloxy)-N-(2-methoxyphenyl)-5-(2-methylbenzo[d]oxazol-6-yl)-7H-pyrrolo[2,3-d]pyrimidin-2-amine]",100 to 400 nM
20,"Cc1nc2ccc(-c3c[nH]c4nc(Nc5ccc(C(=O)N(C)C)cc5C)nc(O[C@H]5CCCOC5)c34)cc2o1 [Example 104, (S)-N,N,3-trimethyl-4-(5-(2-methylbenzo[d]oxazol-6-yl)-4-(tetrahydro-2H-pyran-3-yloxy)-7H-pyrrolo[2,3-d]pyrimidin-2-ylamino)benzamide]",< 100 nM
21,"Cc1cc(C(=O)N(C)C)ccc1Nc1nc(OC2CCOCC2)c2c(-c3cccc(S(C)(=O)=O)c3)c[nH]c2n1 [Example 105, N,N,3-trimethyl-4-(5-(3-(methylsulfonyl)phenyl)-4-(tetrahydro-2H-pyran-4-yloxy)-7H-pyrrolo[2,3-d]pyrimidin-2-ylamino)benzamide]",< 100 nM
22,"CNC(=O)c1ccc(Nc2nc(OC3CCOCC3)c3c(-c4cccc(S(C)(=O)=O)c4)c[nH]c3n2)c(OC)c1 [Example 106, 3-methoxy-N-methyl-4-(5-(3-(methylsulfonyl)phenyl)-4-(tetrahydro-2H-pyran-4-yloxy)-7H-pyrrolo[2,3-d]pyrimidin-2-ylamino)benzamide]",< 100 nM
23,"Cc1cc(C(=O)N(C)C)ccc1Nc1nc(OC2CCOCC2)c2c(-c3cncnc3)c[nH]c2n1 [Example 107, N,N,3-trimethyl-4-(5-(pyrimidin-5-yl)-4-(tetrahydro-2H-pyran-4-yloxy)-7H-pyrrolo[2,3-d]pyrimidin-2-ylamino)benzamide]",100 to 400 nM
24,"CCOc1ccc(-c2c[nH]c3nc(Nc4ccc(C(=O)N(C)C)cc4C)nc(OC4CCOCC4)c23)cn1 [Example 109, 4-(5-(6-ethoxypyridin-3-yl)-4-(tetrahydro-2H-pyran-4-yloxy)-7H-pyrrolo[2,3-d]pyrimidin-2-ylamino)-N,N,3-trimethylbenzamide]",< 100 nM
25,"CNC(=O)c1ccc(Nc2nc(OC3CCCC3)c3c(-c4ccc5nc(N)[nH]c5c4)c[nH]c3n2)c(OC)c1 [Example 110, 4-(5-(2-amino-1H-benzo[d]imidazol-6-yl)-4-(cyclopentyloxy)-7H-pyrrolo[2,3-d]pyrimidin-2-ylamino)-3-methoxy-N-methylbenzamide]",< 100 nM
26,"Cc1cc(C(=O)N(C)C)ccc1Nc1nc(OC2CCOCC2)c2c(-c3nnco3)c[nH]c2n1 [Example 111, 4-(5-(1,3,4-oxadiazol-2-yl)-4-(tetrahydro-2H-pyran-4-yloxy)-7H-pyrrolo[2,3-d]pyrimidin-2-ylamino)-N,N,3-trimethylbenzamide]",1000 to 10000 nM
27,"Cc1cc(C(=O)N(C)C)ccc1Nc1nc(OC2CCOCC2)c2c(-c3cnn(C)c3)c[nH]c2n1 [Example 112, N,N,3-trimethyl-4-(5-(1-methyl-1H-pyrazol-4-yl)-4-(tetrahydro-2H-pyran-4-yloxy)-7H-pyrrolo[2,3-d]pyrimidin-2-ylamino)benzamide]",< 100 nM
28,"Cc1cc(C(=O)N(C)C)ccc1Nc1nc(OC2CCOCC2)c2c(-c3ccn(C)n3)c[nH]c2n1 [Example 113, N,N,3-trimethyl-4-(5-(1-methyl-1H-pyrazol-3-yl)-4-(tetrahydro-2H-pyran-4-yloxy)-7H-pyrrolo[2,3-d]pyrimidin-2-ylamino)benzamide]",400 to 1000 nM
29,"CNC(=O)c1ccc(Nc2nc(OC3CCOCC3)c3c(-c4ccncc4)c[nH]c3n2)c(OC)c1 [Example 114, 3-methoxy-N-methyl-4-(5-(pyridin-4-yl)-4-(tetrahydro-2H-pyran-4-yloxy)-7H-pyrrolo[2,3-d]pyrimidin-2-ylamino)benzamide]",< 100 nM
